Laboratory results published in US9045555B2, “Vaccine against amyloid folding intermediate” (priority 2008, dated 2015).

Key:
fibrillar Aβ 1-42 = experiment: ELISA of sera of immunized mice, coating fibrillar Aβ 1-42 (cross-reactivity); type: in vivo, Balb/c mice; details: in vitro ELISA
[1] = ELISA of sera of immunized mice, coating homologous peptide-BSA conjugates (anti-peptide titre); type: in vivo, Balb/c mice
oligomeric Aβ 1-42 = experiment: ELISA of sera of immunized mice, coating oligomeric Aβ 1-42 (cross-reactivity); type: in vivo, Balb/c mice; details: in vitro ELISA
[2] = test system: Aβ deposits in post-mortem AD human brain tissue (hippocampus); experiment: Immunohistochemical staining of human AD brain sections with sera of immunized mice; details: mouse serum 1:300, hippocampus cryosections, Braak 5 or 6; positive control 6E10
From the text: FIG. 6: Immunohistochemical staining of human brain section donor 99-30 (Braak 6) with a mouse serum (1:300) immunized with cyclo[Aβ(22-28)-YNGK]/tetanus toxoid conjugate (a) and the control monoclonal 6E10 (1:15.000) in (b). […] (Microscope: Leica DMRE fitted with a DC300 camera)
Human brain sections of the hippocampus of several donors with Alzheimer disease (Braak 5 or 6) were used (Netherlands Brain Bank). Cryosections (10 μm) were cut from unfixed directly frozen tissue, thaw-mounted, dried for 1 hour and stored in a sealed box at −20 C. For immunostaining, sections were fixed in 4% PFA-PBS solution for 10 min, washed in 0.05 M phosphate buffer (PB) for 10 min with 2 exchanges and blocked with 10% normal donkey serum (NDS)+0.4% TritonX100 in 0.05M PB for 1 hour at RT. The blocking solution was discarded and diluted mouse sera (1:300; first antibody) in 3% NDS+0.4% TritonX100 in 0.05 M PB was added and incubated 0/N at RT in a box with wet tissues. Sections were washed with 0.05M PB; at least 30 min with one or more exchanges. Then sections were incubated with Donkey-anti-Mouse˜Cy3 1:1400 in 0.05 M PB for 2 hours. Sections were washed with 0.05M PB; at least 30 min with one or more exchanges. Sections were sealed in Vectashield with Dapi (Vector). Mouse Monoclonal 6E10 to beta amyloid 1-17 (Abcam, Cambridge, UK) was used as positive control (1:15,000).

[3] = test system: conformational epitope of Aβ 1-42; experiment: Antibody response in mice recognizing a conformational epitope of Aβ 1-42; type: in vivo; details: epitope as expressed in monomer, soluble oligomer, fibrils or neurodegenerative plaques

Row | Substance | cross-reaction of elicited antibodies with Aβ (1-42)-fibrils (fibrillar Aβ 1-42) | antipeptide antibody titers / antibody response to the immunizing peptide [1] | cross-reaction of elicited antibodies with Aβ (1-42)-oligomers (oligomeric Aβ 1-42) | recognition of Aβ deposits / plaques in AD human brain tissue by elicited antibodies [2] | induction of an antibody response in mice specifically recognizing a conformational epitope of Aβ 1-42 [3]
1 | Ac-K*EDVGSNKYNG-NH2 (Ac-K(tetanus toxoid)EDVGSNKYNG-NH2) [group 3, tetanus toxoid conjugate of the linear N-acetylated peptide amide] | did not recognize | good | did not recognize |  | 
2 | cyclo[EDVGSNKYNGK*] (cyclo(EDVGSNKYNGK(tetanus toxoid))) [group 9, tetanus toxoid conjugate of the cyclic peptide [Aβ(22-28)-YNGK*]] | cross-react |  | cross-react | recognize | able to induce an antibody response
